For one assay, the target named is NDM-1 (Klebsiella pneumoniae, UniProt C7C422). Briefly: biochemical. In kind it is biochemical. Conditions: NDM-1 enzyme, CCF2-FA substrate; read-out: NDM-1 IC50.
In a further assay the target is IMP-1 (Serratia marcescens, UniProt P52699). Briefly: biochemical. Format: biochemical. Conditions: IMP-1 enzyme, CCF2-FA substrate; read-out: IMP-1 IC50.
Another assay deals with VIM-1 (Pseudomonas aeruginosa (strain ATCC 15692 / DSM 22644 / CIP 104116 / JCM 14847 / LMG 12228 / 1C / PRS 101 / PAO1), UniProt A0A0F7KYQ8). Nature of the assay: Enzyme activity: determination of IC50, fluorescence assay with CCF2-FA substrate (VIM-1). The settings on record: CCF2-FA substrate. Format: biochemical.
For assay [1], the system named is Escherichia coli expressing NDM-1 (CLB30016). Briefly: Antibiotic potentiation activity: synergistic concentration (MITC95) with imipenem, OD600 growth. Format: cell-based. The settings on record: (CLB30016, NDM-1), 95% growth inhibition. The gist of the method:
(§1)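 In 1.1× CAMHB, clinical isolates from overnight plates were challenged with test compound alongside imipenem at an assay concentration of 4 μg/ml, sometimes 1 μg/ml. Plates sat covered at 35 °C for 22–24 h prior to spectrophotometric reading.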

Assay [2] deals with Klebsiella pneumoniae expressing VIM-1 (IHMA599644). Described as above. Format: cell-based. Conditions: Klebsiella pneumoniae IHMA599644 (VIM-1), 95% growth inhibition. A digest of the protocol:
as §1

Assay [3] relates to Serratia marcescens expressing IMP-1 (CL5741). The assay is described as above. In kind it is cell-based. Conditions: Serratia marcescens CL5741 (IMP-1), 95% growth inhibition. The gist of the method: as §1
Where [4] appears, read: VIM-1 enzyme, read-out: VIM-1 IC50.

Here are results for 17 molecules from patent publication US9708336B2, “Metallo-beta-lactamase inhibitors” (priority 2014, dated 2017).

Like-named read-outs stand apart in the source and are kept apart here. Where only a bound is given, the exact number is not on record here.

Sequence of NDM-1 (C7C422 whole entry, looked up, species assumed): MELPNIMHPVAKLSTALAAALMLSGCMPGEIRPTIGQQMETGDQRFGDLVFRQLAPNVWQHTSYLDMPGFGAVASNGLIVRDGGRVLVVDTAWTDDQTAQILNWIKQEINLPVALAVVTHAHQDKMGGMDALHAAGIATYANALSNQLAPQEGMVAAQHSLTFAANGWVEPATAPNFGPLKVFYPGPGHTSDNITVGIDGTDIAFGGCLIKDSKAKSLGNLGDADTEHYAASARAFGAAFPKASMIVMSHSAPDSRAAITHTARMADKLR
Sequence of IMP-1 (P52699 whole entry, looked up): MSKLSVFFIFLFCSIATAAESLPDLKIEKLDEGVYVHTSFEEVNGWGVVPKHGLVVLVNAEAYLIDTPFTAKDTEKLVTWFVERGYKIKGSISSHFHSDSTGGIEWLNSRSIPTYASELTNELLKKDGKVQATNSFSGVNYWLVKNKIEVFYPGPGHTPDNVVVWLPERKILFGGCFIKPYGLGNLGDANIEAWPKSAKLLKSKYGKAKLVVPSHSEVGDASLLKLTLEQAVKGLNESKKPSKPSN

For the molecule `CC(C)[C@H](N)CN1CCC(c2ccc(-c3cccc(S(N)(=O)=O)c3-c3nnn[nH]3)cc2)CC1` [Example 615, 3-[4-[1-[(2S)-2-amino-3-methyl-butyl]-4-piperidyl]phenyl]-2-(1H-tetrazol-5-yl)benzenesulfonamide], the IC50 was found to be 9.84 nM at NDM-1, 16.7 nM at IMP-1 and 621 nM on VIM-1 (setting [4]). The “Escherichia coli MITC95” value in assay [1] came out at 0.7813 µM. In addition, in assay [2], the “Klebsiella pneumoniae MITC95” value was above 200 µM. For the same molecule, the “Serratia marcescens MITC95” value in assay [3] is 1.172 µM.
As to `NCCN1CCC(c2ccc(-c3cccc(S(N)(=O)=O)c3-c3nnn[nH]3)cc2)CC1` [Example 616, 3-[4-[1-(2-aminoethyl)-4-piperidyl]phenyl]-2-(1H-tetrazol-5-yl)benzenesulfonamide], the IC50 on NDM-1 was found to be 4.37 nM; at IMP-1 it was 14.4 nM; on VIM-1 (setting [4]), 276 nM. Also, the “Escherichia coli MITC95” value in assay [1] stood at 0.3906 µM. Also, the “Klebsiella pneumoniae MITC95” value in assay [2] amounted to 75 µM. Further, in assay [3], the “Serratia marcescens MITC95” value is 0.5859 µM.
In the case of `NS(=O)(=O)c1cccc(-c2ccc(C3CCN(CC4CNC4)CC3)cc2)c1-c1nnn[nH]1` [Example 617, 3-[4-[1-(azetidin-3-ylmethyl)-4-piperidyl]phenyl]-2-(1H-tetrazol-5-yl)benzenesulfonamide], the IC50 on NDM-1 amounted to 10 nM; on IMP-1, 9.66 nM; on VIM-1 (setting [4]) it was 334 nM. For the same molecule, in assay [1], the “Escherichia coli MITC95” value is 0.25 µM. Also, in assay [2], the “Klebsiella pneumoniae MITC95” value came to 37.5 µM. Besides, the “Serratia marcescens MITC95” value in assay [3] amounted to 0.2969 µM.
Take `NS(=O)(=O)c1cccc(-c2ccc(C3CCN(CC4CCNC4)CC3)cc2)c1-c1nnn[nH]1` (stereo not drawn) [Example 618, 3-[4-[1-(pyrrolidin-3-ylmethyl)-4-piperidyl]phenyl]-2-(1H-tetrazol-5-yl)benzenesulfonamide]: the IC50 is 11.7 nM at NDM-1, 16.1 nM at IMP-1 and 345 nM at VIM-1 (setting [4]). In addition, in assay [1], the “Escherichia coli MITC95” value was found to be 0.3906 µM. Moreover, the “Klebsiella pneumoniae MITC95” value in assay [2] was determined as 75 µM. Besides, the “Serratia marcescens MITC95” value in assay [3] is 0.3906 µM.
With `NS(=O)(=O)c1cccc(-c2ccc(C3CCN(C[C@H]4CNCCO4)CC3)cc2)c1-c1nnn[nH]1` [Example 619], the IC50 was determined as 8.23 nM at NDM-1; 10.8 nM on IMP-1; 388 nM against VIM-1 (VIM-1 IC50, VIM-1 enzyme). The “Escherichia coli MITC95” value in assay [1] was 0.7813 µM. In addition, the “Klebsiella pneumoniae MITC95” value in assay [2] was determined as 150 µM. For the same molecule, the “Serratia marcescens MITC95” value in assay [3] came out at 0.9766 µM.
On to `NS(=O)(=O)c1cccc(-c2ccc(N3CCC(CO)C3)nc2)c1-c1nnn[nH]1` (stereo not drawn) [Example 622, 3-[6-[3-(hydroxymethyl)pyrrolidin-1-yl]-3-pyridyl]-2-(1H-tetrazol-5-yl)benzenesulfonamide], for which the IC50 at NDM-1 came to 4.39 nM; at IMP-1, 85.6 nM; on VIM-1 (setting [4]), 142 nM. For the same molecule, the “Escherichia coli MITC95” value in assay [1] is 0.9766 µM. Moreover, the “Klebsiella pneumoniae MITC95” value in assay [2] was above 200 µM. For the same molecule, the “Serratia marcescens MITC95” value in assay [3] turned out to be 6.25 µM.
With `CC(=O)NC1CCN(c2ccc(-c3cccc(S(N)(=O)=O)c3-c3nnn[nH]3)cn2)C1` (stereo not drawn) [Example 623, N-[1-[5-[3-sulfamoyl-2-(1H-tetrazol-5-yl)phenyl]-2-pyridyl]pyrrolidin-3-yl]acetamide], the IC50 at NDM-1 was found to be 7.94 nM; at IMP-1, 79.5 nM; at VIM-1 (VIM-1 IC50, VIM-1 enzyme) it was 207 nM. The “Escherichia coli MITC95” value in assay [1] came to 1.953 µM. In addition, the “Klebsiella pneumoniae MITC95” value in assay [2] worked out at 150 µM. Besides, the “Serratia marcescens MITC95” value in assay [3] came out at 6.25 µM.
For `CC(C)(O)C1CN(c2ccc(-c3cccc(S(N)(=O)=O)c3-c3nnn[nH]3)cn2)C1` [Example 624, 3-[6-[3-(1-hydroxy-1-methyl-ethyl)azetidin-1-yl]-3-pyridyl]-2-(1H-tetrazol-5-yl)benzenesulfonamide], the IC50 on NDM-1 is 10.2 nM; on IMP-1, 86.2 nM; at VIM-1 (setting [4]) it was 559 nM. Further, in assay [1], the “Escherichia coli MITC95” value stood at 7.813 µM. For the same molecule, the “Klebsiella pneumoniae MITC95” value in assay [2] is above 200 µM. Further, the “Serratia marcescens MITC95” value in assay [3] was determined as 12.5 µM.
`CN(C)C1(C)CN(c2ccc(-c3cccc(S(N)(=O)=O)c3-c3nnn[nH]3)cn2)C1` [Example 625, 3-[6-[3-(dimethylamino)-3-methyl-azetidin-1-yl]-3-pyridyl]-2-(1H-tetrazol-5-yl)benzenesulfonamide]: the values for the IC50 on NDM-1, at IMP-1 and at VIM-1 (setting [4]) were 37 nM, 203 nM and 1350 nM, respectively. In addition, the “Escherichia coli MITC95” value in assay [1] was 2.344 µM. In addition, the “Klebsiella pneumoniae MITC95” value in assay [2] was above 200 µM. Besides, the “Serratia marcescens MITC95” value in assay [3] amounted to 12.5 µM.
For `CN(C)C1CCN(c2ccc(-c3cccc(S(N)(=O)=O)c3-c3nnn[nH]3)cn2)C1` (stereo not drawn) [Example 627, 3-[6-[3-(dimethylamino)pyrrolidin-1-yl]-3-pyridyl]-2-(1H-tetrazol-5-yl)benzenesulfonamide], the IC50 at NDM-1 was 32.9 nM; on IMP-1 it was 415 nM; at VIM-1 (setting [4]), 830 nM. The “Escherichia coli MITC95” value in assay [1] came to 1.172 µM. Moreover, in assay [2], the “Klebsiella pneumoniae MITC95” value is 100 µM. Moreover, the “Serratia marcescens MITC95” value in assay [3] turned out to be 12.5 µM.
Consider `CN(CCN1CCCC1)c1ccc(-c2cccc(S(N)(=O)=O)c2-c2nnn[nH]2)cn1` [Example 629, 3-[6-[methyl(2-pyrrolidin-1-ylethyl)amino]-3-pyridyl]-2-(1H-tetrazol-5-yl)benzenesulfonamide], for which the IC50 at NDM-1 worked out at 43.6 nM; on IMP-1, 799 nM; at VIM-1 (setting [4]), 668 nM. Moreover, the “Escherichia coli MITC95” value in assay [1] came out at 4.688 µM. Moreover, the “Klebsiella pneumoniae MITC95” value in assay [2] was found to be 100 µM. The “Serratia marcescens MITC95” value in assay [3] worked out at 25 µM.
For the molecule `NS(=O)(=O)c1cccc(-c2ccc(N3CC(CN4CCCC4)C3)nc2)c1-c1nnn[nH]1` [Example 630, 3-[6-[3-(pyrrolidin-1-ylmethyl)azetidin-1-yl]-3-pyridyl]-2-(1H-tetrazol-5-yl)benzenesulfonamide], the IC50 on NDM-1 was found to be 32.3 nM; at IMP-1, 388 nM; on VIM-1 (setting [4]), 635 nM. In assay [1], the “Escherichia coli MITC95” value was 1.172 µM. Further, in assay [2], the “Klebsiella pneumoniae MITC95” value was 50 µM. Also, in assay [3], the “Serratia marcescens MITC95” value was found to be 12.5 µM.
Consider `CS(=O)(=O)C1CN(c2ccc(-c3cccc(S(N)(=O)=O)c3-c3nnn[nH]3)cn2)C1` [Example 631, 3-[6-(3-methylsulfonylazetidin-1-yl)-3-pyridyl]-2-(1H-tetrazol-5-yl)benzenesulfonamide], for which the values for the IC50 on NDM-1, at IMP-1 and at VIM-1 (setting [4]) were 8.25 nM, 39.9 nM and 110 nM, respectively. Also, the “Escherichia coli MITC95” value in assay [1] was determined as 1.953 µM. The “Klebsiella pneumoniae MITC95” value in assay [2] amounted to 25 µM. The “Serratia marcescens MITC95” value in assay [3] was found to be 6.25 µM.
For `CN1CCC2(CCN(c3ccc(-c4cccc(S(N)(=O)=O)c4-c4nnn[nH]4)cn3)C2)C1` (stereo not drawn) [Example 632, 3-[6-(7-methyl-2,7-diazaspiro[4.4]nonan-2-yl)-3-pyridyl]-2-(1H-tetrazol-5-yl)benzenesulfonamide], the IC50 at NDM-1 turned out to be 26.8 nM; at IMP-1, 254 nM; on VIM-1 (setting [4]) it was 482 nM. In assay [1], the “Escherichia coli MITC95” value was determined as 1.172 µM. In addition, the “Klebsiella pneumoniae MITC95” value in assay [2] was found to be 100 µM. Moreover, the “Serratia marcescens MITC95” value in assay [3] was determined as 6.25 µM.
Take `NS(=O)(=O)c1cccc(-c2ccc(N3CCC(O)C3)nc2)c1-c1nnn[nH]1` (stereo not drawn) [Example 633, 3-[6-(3-hydroxypyrrolidin-1-yl)-3-pyridyl]-2-(1H-tetrazol-5-yl)benzenesulfonamide]: the IC50 worked out at 4.88 nM at NDM-1, 66.4 nM at IMP-1 and 120 nM on VIM-1 (setting [4]). For the same molecule, in assay [1], the “Escherichia coli MITC95” value came out at 0.125 µM. For the same molecule, the “Klebsiella pneumoniae MITC95” value in assay [2] was 37.5 µM. In addition, in assay [3], the “Serratia marcescens MITC95” value came to 4.833 µM.
For the molecule `CC1(O)CN(c2ccc(-c3cccc(S(N)(=O)=O)c3-c3nnn[nH]3)cn2)C1` [Example 635, 3-[6-(3-hydroxy-3-methyl-azetidin-1-yl)-3-pyridyl]-2-(1H-tetrazol-5-yl)benzenesulfonamide], the IC50 turned out to be 4.92 nM at NDM-1, 91.5 nM on IMP-1 and 258 nM at VIM-1 (setting [4]). Besides, in assay [1], the “Escherichia coli MITC95” value stood at 2.148 µM. The “Klebsiella pneumoniae MITC95” value in assay [2] was 112.5 µM. Further, in assay [3], the “Serratia marcescens MITC95” value worked out at 7.813 µM.
Regarding `CNCCN(C)c1ccc(-c2cccc(S(N)(=O)=O)c2-c2nnn[nH]2)cn1` [Example 637, 3-[6-[methyl-[2-(methylamino)ethyl]amino]-3-pyridyl]-2-(1H-tetrazol-5-yl)benzenesulfonamide], the IC50 on NDM-1 came to 52 nM; at IMP-1 it was 925 nM; against VIM-1 (VIM-1 IC50, VIM-1 enzyme), 453 nM. Also, in assay [1], the “Escherichia coli MITC95” value was found to be 2.344 µM. In addition, the “Klebsiella pneumoniae MITC95” value in assay [2] came to 50 µM. Besides, the “Serratia marcescens MITC95” value in assay [3] was 25 µM.

For orientation: IC50 means the concentration needed to halve the response being measured.
